{
  "source": "ChEMBL document CHEMBL1137259",
  "about": "“Tubeimoside V (1), a new cyclic bisdesmoside from tubers of Bolbostemma paniculatum, functions by inducing apoptosis in human glioblastoma U87MG cells” (Bioorg Med Chem Lett, 2006)",
  "key": {"U-87 MG [1]": {"tested_on": "U-87 MG", "assay": "Antiproliferative activity against human U87MG cell line by MTT assay", "type": "functional, cell-based, U-87MG ATCC"}, "U-87 MG [2]": {"tested_on": "U-87 MG", "assay": "Cell cycle arrest in U87MG cells by accumulation at G0/G1 phase at 2.6 uM after 12 hrs", "type": "functional, Homo sapiens, U-87MG ATCC"}, "U-87 MG [3]": {"tested_on": "U-87 MG", "assay": "Induction of apoptosis measured as chromatin condensation in human U87MG cell line at 7.0 uM after 24 hrs by hoechst 33342 staining", "type": "functional, cell-based", "settings": "U-87MG ATCC"}, "U-87 MG [4]": {"tested_on": "U-87 MG", "assay": "Induction of apoptosis assessed as phosphatidylserine externalization in human U87MG cell line at 7.0 uM after 24 hrs by annexinV/PI assay", "type": "functional, cell-based", "settings": "U-87MG ATCC"}, "U-87 MG [5]": {"tested_on": "U-87 MG", "assay": "Induction of apoptosis measured as down regulation of Bcl2 expression in human U87MG cell line by Western blot analysis at 7.0 uM after 6 hrs", "type": "functional, cell-based", "settings": "U-87MG ATCC"}, "U-87 MG [6]": {"tested_on": "U-87 MG", "assay": "Induction of apoptosis measured as up regulation of Bax expression in human U87MG cell line by Western blot analysis at 7.0 uM after 6 hrs", "type": "functional, cell-based", "settings": "U-87MG ATCC"}, "U-87 MG [7]": {"tested_on": "U-87 MG", "assay": "Induction of apoptosis measured as down regulation of Bcl2 expression in human U87MG cell line by Western blot analysis at 7.0 uM after 24 hrs", "type": "functional, cell-based", "settings": "U-87MG ATCC"}, "U-87 MG [8]": {"tested_on": "U-87 MG", "assay": "Induction of apoptosis measured as up regulation of Bax expression in human U87MG cell line by Western blot analysis at 7.0 uM after 24 hrs", "type": "functional, cell-based", "settings": "U-87MG ATCC"}, "U-87 MG [9]": {"tested_on": "U-87 MG", "assay": "Cell cycle arrest in U87MG cells by accumulation at S phase at 2.6 uM after 12 hrs", "type": "functional, Homo sapiens, U-87MG ATCC"}, "U-87 MG [10]": {"tested_on": "U-87 MG", "assay": "Cell cycle arrest in U87MG cells by accumulation at G2/M phase at 2.6 uM after 12 hrs", "type": "functional, Homo sapiens, U-87MG ATCC"}, "U-87 MG [11]": {"tested_on": "U-87 MG", "assay": "Cell cycle arrest in U87MG cells by accumulation at SubG1 phase at 2.6 uM after 12 hrs", "type": "functional, Homo sapiens, U-87MG ATCC"}, "U-87 MG [12]": {"tested_on": "U-87 MG", "assay": "Cell cycle arrest in U87MG cells by accumulation at G0/G1 phase at 3.6 uM after 12 hrs", "type": "functional, Homo sapiens, U-87MG ATCC"}, "U-87 MG [13]": {"tested_on": "U-87 MG", "assay": "Cell cycle arrest in U87MG cells by accumulation at S phase at 3.6 uM after 12 hrs", "type": "functional, Homo sapiens, U-87MG ATCC"}, "U-87 MG [14]": {"tested_on": "U-87 MG", "assay": "Cell cycle arrest in U87MG cells by accumulation at G2/M phase at 3.6 uM after 12 hrs", "type": "functional, Homo sapiens, U-87MG ATCC"}, "U-87 MG [15]": {"tested_on": "U-87 MG", "assay": "Cell cycle arrest in U87MG cells by accumulation at SubG1 phase at 3.6 uM after 12 hrs", "type": "functional, Homo sapiens, U-87MG ATCC"}, "U-87 MG [16]": {"tested_on": "U-87 MG", "assay": "Cell cycle arrest in U87MG cells by accumulation at G0/G1 phase at 2.6 uM after 24 hrs", "type": "functional, Homo sapiens, U-87MG ATCC"}, "U-87 MG [17]": {"tested_on": "U-87 MG", "assay": "Cell cycle arrest in U87MG cells by accumulation at S phase at 2.6 uM after 24 hrs", "type": "functional, Homo sapiens, U-87MG ATCC"}, "U-87 MG [18]": {"tested_on": "U-87 MG", "assay": "Cell cycle arrest in U87MG cells by accumulation at G2/M phase at 2.6 uM after 24 hrs", "type": "functional, Homo sapiens, U-87MG ATCC"}, "U-87 MG [19]": {"tested_on": "U-87 MG", "assay": "Cell cycle arrest in U87MG cells by accumulation at SubG1 phase at 2.6 uM after 24 hrs", "type": "functional, Homo sapiens, U-87MG ATCC"}, "U-87 MG [20]": {"tested_on": "U-87 MG", "assay": "Cell cycle arrest in U87MG cells by accumulation at G0/G1 phase at 3.6 uM after 24 hrs", "type": "functional, Homo sapiens, U-87MG ATCC"}, "U-87 MG [21]": {"tested_on": "U-87 MG", "assay": "Cell cycle arrest in U87MG cells by accumulation at S phase at 3.6 uM after 24 hrs", "type": "functional, Homo sapiens, U-87MG ATCC"}, "U-87 MG [22]": {"tested_on": "U-87 MG", "assay": "Cell cycle arrest in U87MG cells by accumulation at G2/M phase at 3.6 uM after 24 hrs", "type": "functional, Homo sapiens, U-87MG ATCC"}, "U-87 MG [23]": {"tested_on": "U-87 MG", "assay": "Cell cycle arrest in U87MG cells by accumulation at SubG1 phase at 3.6 uM after 24 hrs", "type": "functional, Homo sapiens, U-87MG ATCC"}, "U-87 MG [24]": {"tested_on": "U-87 MG", "assay": "Cell cycle arrest in U87MG cells by accumulation at G0/G1 phase at 7.0 uM after 12 hrs", "type": "functional, Homo sapiens, U-87MG ATCC"}, "U-87 MG [25]": {"tested_on": "U-87 MG", "assay": "Cell cycle arrest in U87MG cells by accumulation at S phase at 7.0 uM after 12 hrs", "type": "functional, Homo sapiens, U-87MG ATCC"}, "U-87 MG [26]": {"tested_on": "U-87 MG", "assay": "Cell cycle arrest in U87MG cells by accumulation at G2/M phase at 7.0 uM after 12 hrs", "type": "functional, Homo sapiens, U-87MG ATCC"}, "U-87 MG [27]": {"tested_on": "U-87 MG", "assay": "Cell cycle arrest in U87MG cells by accumulation at SubG1 phase at 7.0 uM after 12 hrs", "type": "functional, Homo sapiens, U-87MG ATCC"}, "U-87 MG [28]": {"tested_on": "U-87 MG", "assay": "Cell cycle arrest in U87MG cells by accumulation at G0/G1 phase at 7.0 uM after 24 hrs", "type": "functional, Homo sapiens, U-87MG ATCC"}, "U-87 MG [29]": {"tested_on": "U-87 MG", "assay": "Cell cycle arrest in U87MG cells by accumulation at S phase at 7.0 uM after 24 hrs", "type": "functional, Homo sapiens, U-87MG ATCC"}, "U-87 MG [30]": {"tested_on": "U-87 MG", "assay": "Cell cycle arrest in U87MG cells by accumulation at G2/M phase at 7.0 uM after 24 hrs", "type": "functional, Homo sapiens, U-87MG ATCC"}, "U-87 MG [31]": {"tested_on": "U-87 MG", "assay": "Cell cycle arrest in U87MG cells by accumulation at SubG1 phase at 7.0 uM after 24 hrs", "type": "functional, Homo sapiens, U-87MG ATCC"}},
  "note": "The source made the active and inactive calls. No cut-off for these calls is given here.",
  "data": [
    {"smiles": "C[C@@H]1O[C@H]2O[C@@H]3[C@H](OC[C@@H](O)[C@H]3O)OC(=O)[C@]34CCC(C)(C)CC3C3=CCC5[C@@]6(C)C[C@H](O)[C@H](O[C@@H]7O[C@H](CO)[C@@H](O)[C@H](O)[C@H]7O[C@H]7O[C@@H](COC(=O)C[C@](C)(O)CC(=O)O[C@@H]1[C@@H](O[C@@H]1OC[C@@H](O)[C@H](O)[C@H]1O)[C@H]2O)[C@H](O)[C@@H](O)[C@@H]7O)[C@@](C)(CO)C6CC[C@@]5(C)[C@]3(C)CC4", "note": "(stereo partly drawn) [TUBEIMOSIDE V]", "values": [
      {"measurement": "IC25", "setting": "U-87 MG [1]", "value": 2.6, "unit": "µM"},
      {"measurement": "IC50", "setting": "U-87 MG [1]", "value": 3.6, "unit": "µM"},
      {"measurement": "IC75", "setting": "U-87 MG [1]", "value": 7, "unit": "µM"},
      {"measurement": "Activity", "setting": "U-87 MG [2]", "value": 50.1, "unit": "%"},
      {"measurement": "Activity", "setting": "U-87 MG [3]", "value": "Active"},
      {"measurement": "Activity", "setting": "U-87 MG [4]", "value": "Active"},
      {"measurement": "Activity", "setting": "U-87 MG [5]", "value": "Active"},
      {"measurement": "Activity", "setting": "U-87 MG [6]", "value": "Active"},
      {"measurement": "Activity", "setting": "U-87 MG [7]", "value": "Active"},
      {"measurement": "Activity", "setting": "U-87 MG [8]", "value": "Active"},
      {"measurement": "Activity", "setting": "U-87 MG [9]", "value": 27.6, "unit": "%"},
      {"measurement": "Activity", "setting": "U-87 MG [10]", "value": 22.3, "unit": "%"},
      {"measurement": "Activity", "setting": "U-87 MG [11]", "value": 4.1, "unit": "%"},
      {"measurement": "Activity", "setting": "U-87 MG [12]", "value": 51, "unit": "%"},
      {"measurement": "Activity", "setting": "U-87 MG [13]", "value": 31.4, "unit": "%"},
      {"measurement": "Activity", "setting": "U-87 MG [14]", "value": 17.6, "unit": "%"},
      {"measurement": "Activity", "setting": "U-87 MG [15]", "value": 8.9, "unit": "%"},
      {"measurement": "Activity", "setting": "U-87 MG [16]", "value": 51.3, "unit": "%"},
      {"measurement": "Activity", "setting": "U-87 MG [17]", "value": 31, "unit": "%"},
      {"measurement": "Activity", "setting": "U-87 MG [18]", "value": 17.7, "unit": "%"},
      {"measurement": "Activity", "setting": "U-87 MG [19]", "value": 9.1, "unit": "%"},
      {"measurement": "Activity", "setting": "U-87 MG [20]", "value": 53.5, "unit": "%"},
      {"measurement": "Activity", "setting": "U-87 MG [21]", "value": 34.2, "unit": "%"},
      {"measurement": "Activity", "setting": "U-87 MG [22]", "value": 12.3, "unit": "%"},
      {"measurement": "Activity", "setting": "U-87 MG [23]", "value": 20.8, "unit": "%"},
      {"measurement": "Activity", "setting": "U-87 MG [24]", "value": 53.3, "unit": "%"},
      {"measurement": "Activity", "setting": "U-87 MG [25]", "value": 32.6, "unit": "%"},
      {"measurement": "Activity", "setting": "U-87 MG [26]", "value": 14.1, "unit": "%"},
      {"measurement": "Activity", "setting": "U-87 MG [27]", "value": 18.3, "unit": "%"},
      {"measurement": "Activity", "setting": "U-87 MG [28]", "value": 53.3, "unit": "%"},
      {"measurement": "Activity", "setting": "U-87 MG [29]", "value": 37.1, "unit": "%"},
      {"measurement": "Activity", "setting": "U-87 MG [30]", "value": 9.6, "unit": "%"},
      {"measurement": "Activity", "setting": "U-87 MG [31]", "value": 42.3, "unit": "%"}
    ]}
  ]
}
